The target of one experiment is T1, EGFR kinase (Homo sapiens, UniProt P00533).
T1 construct: purchased Cell signaling technology #7908
Description: EGFR Kinase Assay. In kind it is biochemical. Conditions: 20 μM ATP, 25° C. 45 minutes. Here is the method:
EGFR kinase activity in vitro was measured as described below:
a. Wash Buffer (PBS-T Buffer): 1×PBS (137 mM NaCl, 2.7 mM KCl, 4.3 mM Na2HPO4, 1.4 mM KH2PO4, adjust the pH to 7.2) and 0.05% Tween-20.
(§1) b. 1% Bovine Serum Albumin (BSA, Calbiochem #136593) in PBS-T.
c. Stop Buffer: 50 mM EDTA, pH 8.0
d. DELFIA® Europium-labeled Anti-mouse IgG (PerkinElmer Life Sciences #AD0124)
e. DELFIA® Enhancement Solution (PerkinElmer Life Sciences #1244-105)
f. DELFIA® Streptavidin coated, 96-well, yellow plate (PerkinElmer Life Sciences #AAAND-0005)
g. EGFR kinase (supplied in 50 mM Tris-HCl (pH 8.0), 100 mM NaCl, 5 mM DTT, 15 mM reduced glutathione and 20% glycerol. Cell signaling technology #7908).
(§2) h. 10 mM ATP solution (Cell signaling technology #9804).
i. PTP1B (Tyr66) Biotinylated Peptide (Cell signaling technology #1325).
(§3) j. Phospho-Tyrosine Mouse mAb (P-Tyr-100) (Cell signaling technology #9411).
(§4) k. HTScan™ Tyrosine Kinase Buffer (4×)
(§5) (Cell signaling technology #9805).
(§6) l. 1.25 M DTT (1000×) (Cell signaling technology).
(§7) The following protocol was used:
1. Dilute test compound with DMSO to the desired final assay concentration.
2. Dilute 6 μM substrate peptide (Tyr66) 1:1 with dH2O, add 15 μl to every assay.
3. Immediately transfer EGFR enzyme from −80° C. to ice. Allow enzyme to thaw on ice.
4. Take 3 μg EGFR enzyme to the enzyme tube.
(§8) 5. Add 10 μl of DTT (1.25 M) to 2.5 ml of 4×HTScan™ Tyrosine Kinase Buffer (240 mM HEPES pH 7.5, 20 mM MgCl2, 20 mM MnCl2, 12 μM Na3VO4) to make DTT/Kinase buffer.
(§9) 6. Transfer 0.75 ml of DTT/Kinase buffer to each enzyme tube to make 4× reaction cocktail. Add 7.5 μl 4× reaction cocktail to every assay.
7. Add 4 μl ATP (10 mM) to 496 μl dH2O, take 7.5 μl for every assay.
Final Assay Conditions for a 30 μl Reaction
(§10) Incubate reaction tube at 25° C. for 45 minutes. 9. Add 30 μl/assay stop buffer (50 mM EDTA, pH 8.0) to stop the reaction. 10. Transfer 25 μl of each reaction and 75 μl dH2O/well to a 96-well streptavidin coated plate and incubate, with shaking at room temperature for 60 minutes. 11. Wash three times with 200 μl/well PBS-T buffer. Pat plate on paper towel to remove excess liquid. 12. Dilute primary antibody, Phospho-Tyrosine mAb (P-Tyr-100), 1:1000 in PBS-T buffer with 1% BSA. Add 100 μl diluted primary antibody to each well. 13. Incubate, with shaking at room temperature for 60 minutes. 14. Wash as described above in step 11. 15. Dilute Europium labeled anti-mouse IgG 1:500 in PBS-T buffer with 1% BSA. Add 100 μl diluted antibody to each well. 16. Incubate, with shaking at room temperature for 30 minutes. 17. Wash five times with 200 μl/well PBS-T buffer. Pat plate on paper towel to remove excess liquid. 18. Add 100 μl/well DELFIA® Enhancement Solution. 19. Incubate, with shaking at room temperature for 5 minutes. 20. Detect 615 nm fluorescence emission with appropriate Time-Resolved Plate Reader.
(§11) Calculate the inhibition rate: IR (%)=100−100*(X−B)/(N−B)
(§12) X=the fluorescence value of the well contained test compound
(§13) The IC50 value can be derived from the IRs of compounds at different concentration gradients.

A further experiment deals with HUVEC cell. Description: Cell Proliferation Inhibition VEGF-R2 Assay (SRB method). The format is cell-based, homo sapient. As to conditions: Homo sapiens; HUVEC cells, 72 hours exposure, Sulforhodamine B; read-out: IC50 (VEGFR/HUVEC). The source says: The following in vitro assay may be used to determine the level of activity and effect of different compounds of the present invention on the proliferation inhibition (cell toxic) of endothelium growth factor receptor (VEGFR) high expressing homo […] cancer cell-HUVEC cell. The cellular assay described here measure the compounds of their anti-angiogenesis and proliferation inhibition activity and effect through […] on the cancer cells in vitro. The effect and activity is represented by the IC50 value that kills the cancer cell. […] The homo […] highly express […] are chosen and seeded to 96-well cell culture plate at a suitable concentration (exp 5000 cells/ml medium). The cells then are cultured in carbon dioxide (CO2) incubator till when they confluence to about 85%. Then, the cell culture medium is replaced by fresh one with tested compounds added in it at serial concentrations (general 6 to 7 concentrations). Then the cells are put back to the culture and cultured for continuous 72 hours. 72 hours later, the cell exposed to compounds and control cell are assayed for their proliferation using Sulforhodamine B (SRB) method. […] Dimethyl sulfoxide (Sinophma chemical reagent company, catalog No. T20050806) • b. HUVEC cells (Purchased from Institute of biochemistry and cell biology) • c. […] Acetic Acid (Sinophma chemical reagent company, Catalog No. T20060508) • l. Trichloroacetic Acid (Sinophma chemical reagent company, Catalog No. T20060305) • m. […] Class II A/B3 Biological safety cabinet (ThermoForma Catalog No. HB0053-03) • o. […] Centrifuge (Fisher Scientific Marathon 8 k, Catalog No. 0027-02) • q. Novastar Plate reader (BMG Labtech, Catalog No. 700-0081) • r. […] Growing seeded 96-well plates at 37° C., 5% CO2, till 85% confluence. • 4. Prepare compounds stock solution, using DMSO solve candidate compounds to a concentration of 20 mM. […] Use cell culture medium (in this case, DMEM/F12+10% FBS) to dilute the compounds solution prepared above. Each DMSO serial concentration compound solution is diluted by 20 times with culture medium by adding 5 μl DMSO compound solution to 95 μl culture medium, then mix well by vortex. […] After HUVEC cell has attached to the dish bottom and confluence about 85%, change the culture medium with fresh DMEM/F12 plus 10% FBS. Each well added 180 μl medium, then add 20 μl medium solution of tested compounds prepared at step 5 to each well. For control group cell, add 20 μl culture medium containing 0.5% pure DMSO. […] Each 96-well plate, we can test 3 compounds with a control cell group. • 7. Put the culture plates back to incubator, culture for 72 hours at 37° C., 5% CO2. • 8. 72 hours later, remove cultures from incubator into sterile work area. • 9. Prepare fixative (50% Trichloroacetic Acid-TCA) by adding reagent grade water to the TCA, fix the cells by gently layering 50 μl of cold TCA solution on top of the growth medium. • 10. Incubate plates for 1 hour at 4° C. and then rinse with water several times to remove TCA, serum proteins, etc. Plates are air dried and stored until use. Bland background optical density is measured in wells incubated with growth medium without cells. • 11. Use 10% acetic acid solution to prepare 0.4% Sulforhodamine B solution. Add 50 μl sulforhodamine B solution to each well of 96-well plates. • 12. Allow cells to stain for 30 minutes. • 13. Prepared the wash solution of […] acetic acid. At the end of the staining period, the stain is removed and the cells rinsed quickly with 1% acetic acid. Repeat until unincorporated dye is removed. Keep wash times to a minimum to reduce desorption of protein-bound dye. After being rinsed, the cultures are air dried until no moisture is visible. • 14. The incorporated dye is then solubilized in a volume of Sulforhodamine B assay Solubilization solution (10 mM Tris) equal to the original volume of culture medium. Allow cultures to stand for 5 minutes at room temperature.

Another experiment deals with T2, HER-2/ErbB2 kinase (Homo sapiens, UniProt P04626).
T2 construct: purchased Invitrogen corporation #PV3366
Put plainly: HER-2 Kinase Assay (ELISA). In kind it is biochemical. As to conditions: 20 μM ATP, 25° C. 60 minutes. As to the method:
An enzyme linked immunosorbent assays (ELISA) was conducted to measure the kinase activity of HER-2 in vitro.
a. Wash Buffer (PBS-T Buffer): 1×PBS (137 mM NaCl; 2.7 mM KCl, 4.3 mM Na2HPO4, 1.4 mM KH2PO4, adjust the pH to 7.2) and 0.05% Tween-20.
as §1
c. Stop Buffer: 50 mM EDTA, pH 8.0.
d. DELFIA® Europium-labeled Anti-mouse IgG (PerkinElmer Life Sciences #AD0124).
e. DELFIA® Enhancement Solution (PerkinElmer Life Sciences #1244-105).
f. DELFIA® Streptavidin coated, 96-well, yellow plate (PerkinElmer Life Sciences #AAAND-0005).
g. HER-2/ErbB2 kinase (Invitrogen corporation #PV3366).
as §2
i. FLT3 (Tyr589) Biotinylated Peptide (Cell signaling technology #1305).
as §3, §4, §5, §6, §7
1. Dilute test compound with DMSO to the desired final assay concentration. Add 1 μl test compound for every assay, to the negative control.
2. Dilute 6 μM substrate peptide (Tyr589) 1:1 with dH2O, add 15 μl to every assay.
3. Immediately transfer HER-2 enzyme from −80° C. to ice. Allow enzyme to thaw on ice.
4. Take 4.5 μg HER-2 enzyme to the enzyme tube.
as §8, §9
7. Add 4 μl ATP (10 mM) to 496 μl dH2O, take 7.5 μl for every assay. Final Assay Conditions for a 30 μl Reaction
as §10, with “60” for “45”
as §11, §12, §13
In general terms: An ELISA detects its analyte on a solid surface through an enzyme-linked reagent.

The subject of a further experiment is A431 cell. Description: Cell Proliferation Inhibition EGFR Assay (SRB method). In kind it is cell-based, homo sapient. As to conditions: Homo sapiens, A-431; A431 cells, 72 hours exposure, Sulforhodamine B; read-out: IC50 (A431). In outline:
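A431 cells grown to ~85% confluence, then exposed 72 hours at 37° C to 6 to 7 serial concentrations of compound in DMEM/F12 + 10% FBS, final DMSO ≤0.5%. Growth measured by TCA fixation and sulforhodamine B staining; IC50 calculated from inhibition rates.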
Background: Sulforhodamine B stains cellular protein and so reports cell mass.

pIC50: −log10 of the molar value.

Our source for the IC50 values is patent US8697692B2, “Pyrrolo [3,2-c] pyridine-4-one 2-indolinone protein kinase inhibitors” (Shanghai Hengrui Pharmaceutical Co., Ltd., priority 2006, dated 2014).

T2 sequence (P04626 23-1255): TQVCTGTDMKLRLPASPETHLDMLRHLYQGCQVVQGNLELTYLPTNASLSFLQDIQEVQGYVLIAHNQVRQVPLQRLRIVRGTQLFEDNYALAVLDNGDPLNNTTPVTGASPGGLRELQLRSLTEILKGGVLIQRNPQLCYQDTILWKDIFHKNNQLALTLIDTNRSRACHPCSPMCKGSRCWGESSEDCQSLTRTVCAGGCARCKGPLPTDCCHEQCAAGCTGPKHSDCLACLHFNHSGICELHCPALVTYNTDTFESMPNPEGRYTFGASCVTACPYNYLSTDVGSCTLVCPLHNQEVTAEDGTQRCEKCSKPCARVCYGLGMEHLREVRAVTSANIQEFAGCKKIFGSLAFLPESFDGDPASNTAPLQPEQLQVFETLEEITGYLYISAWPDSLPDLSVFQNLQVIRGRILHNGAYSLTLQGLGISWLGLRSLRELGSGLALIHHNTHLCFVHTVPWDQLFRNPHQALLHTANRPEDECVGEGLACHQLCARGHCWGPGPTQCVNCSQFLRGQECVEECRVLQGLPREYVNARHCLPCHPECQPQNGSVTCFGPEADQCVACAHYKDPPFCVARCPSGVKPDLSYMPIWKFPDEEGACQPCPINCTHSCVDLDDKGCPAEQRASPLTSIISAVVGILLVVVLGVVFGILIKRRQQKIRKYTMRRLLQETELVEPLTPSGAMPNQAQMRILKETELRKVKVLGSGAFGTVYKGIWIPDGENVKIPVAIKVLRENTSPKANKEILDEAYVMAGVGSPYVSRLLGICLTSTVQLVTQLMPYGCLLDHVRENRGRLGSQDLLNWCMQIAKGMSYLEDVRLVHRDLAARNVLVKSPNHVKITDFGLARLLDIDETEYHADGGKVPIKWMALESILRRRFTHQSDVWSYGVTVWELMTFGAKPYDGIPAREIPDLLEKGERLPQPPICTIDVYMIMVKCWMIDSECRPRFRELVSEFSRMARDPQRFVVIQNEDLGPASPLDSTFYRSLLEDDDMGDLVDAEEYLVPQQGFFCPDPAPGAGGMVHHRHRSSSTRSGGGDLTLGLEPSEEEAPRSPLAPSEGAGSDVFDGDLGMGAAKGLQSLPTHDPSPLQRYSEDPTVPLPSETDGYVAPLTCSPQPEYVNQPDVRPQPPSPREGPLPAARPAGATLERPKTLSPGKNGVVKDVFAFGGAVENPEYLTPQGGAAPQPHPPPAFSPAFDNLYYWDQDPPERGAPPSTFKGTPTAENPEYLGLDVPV
T1 sequence (P00533 25-1210): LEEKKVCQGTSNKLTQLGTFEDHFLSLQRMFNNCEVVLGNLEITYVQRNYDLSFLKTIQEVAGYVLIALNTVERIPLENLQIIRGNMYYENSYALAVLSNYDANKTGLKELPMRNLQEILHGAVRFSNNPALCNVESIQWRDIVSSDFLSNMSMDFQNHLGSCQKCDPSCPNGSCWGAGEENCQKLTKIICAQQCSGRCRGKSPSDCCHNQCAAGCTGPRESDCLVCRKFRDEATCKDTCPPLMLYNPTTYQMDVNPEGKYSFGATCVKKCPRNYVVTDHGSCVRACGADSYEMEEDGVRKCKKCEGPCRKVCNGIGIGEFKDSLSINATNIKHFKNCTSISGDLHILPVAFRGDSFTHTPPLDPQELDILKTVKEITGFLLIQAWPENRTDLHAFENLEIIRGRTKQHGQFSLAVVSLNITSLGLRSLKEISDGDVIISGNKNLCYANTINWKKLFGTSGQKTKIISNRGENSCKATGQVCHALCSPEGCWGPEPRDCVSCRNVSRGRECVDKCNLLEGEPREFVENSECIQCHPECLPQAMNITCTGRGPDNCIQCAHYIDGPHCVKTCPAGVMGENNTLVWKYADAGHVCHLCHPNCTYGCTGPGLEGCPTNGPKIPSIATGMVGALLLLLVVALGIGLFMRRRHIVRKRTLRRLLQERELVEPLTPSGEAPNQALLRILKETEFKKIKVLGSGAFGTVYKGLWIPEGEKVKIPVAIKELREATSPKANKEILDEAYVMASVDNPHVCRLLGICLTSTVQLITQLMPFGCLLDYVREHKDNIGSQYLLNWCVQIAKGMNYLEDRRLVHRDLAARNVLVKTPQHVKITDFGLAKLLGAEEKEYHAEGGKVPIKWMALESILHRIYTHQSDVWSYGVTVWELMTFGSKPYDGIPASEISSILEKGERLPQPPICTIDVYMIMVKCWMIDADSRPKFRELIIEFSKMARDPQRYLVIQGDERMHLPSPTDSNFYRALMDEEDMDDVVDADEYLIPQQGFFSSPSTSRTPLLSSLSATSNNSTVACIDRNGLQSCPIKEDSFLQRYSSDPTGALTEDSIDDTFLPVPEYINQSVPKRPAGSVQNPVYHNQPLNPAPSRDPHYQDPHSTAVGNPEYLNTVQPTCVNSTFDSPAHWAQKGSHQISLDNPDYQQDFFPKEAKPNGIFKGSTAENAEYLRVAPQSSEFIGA

In the case of `O=C1Nc2ccc(Br)cc2/C1=C/c1[nH]c2c(c1-c1ccccc1)C(=O)NCC2` [Example 41, 2-(5-Bromo-2-oxo-1,2-dihydro-indol-3-ylidenemethyl)-3-phenyl-1,5,6,7-tetrahydro-pyrrolo[3,2-c]pyridin-4-one], the pIC50 on EGFR kinase was 5.22; in the experiment on HUVEC cell, 6.66.

Regarding `Cc1c(/C=C2\C(=O)Nc3cccc(Br)c32)[nH]c2c1C(=O)N(CCN1CCOCC1)CC2` [Example 49, 2-(4-Bromo-2-oxo-1,2-dihydro-indol-3-ylidenemethyl)-3-methyl-5-(2-morpholin-4-yl-ethyl)-1,5,6,7-tetrahydro-pyrrolo[3,2-c]pyridin-4-one], the pIC50 against HER-2/ErbB2 kinase was 4.44.

For `Cc1c(/C=C2\C(=O)Nc3cccc(-c4cccc(F)c4)c32)[nH]c2c1C(=O)N(CCN1CCCCC1)CC2` [Example 64, 2-[4-(3-Fluoro-phenyl)-2-oxo-1,2-dihydro-indol-3-ylidenemethyl]-3-methyl-5-(2-piperidin-1-yl-ethyl)-1,5,6,7-tetrahydro-pyrrolo[3,2-c]pyridin-4-one], the pIC50 was 6.74 in the experiment on A431 cell and 6.17 on HER-2/ErbB2 kinase.

Take `Cc1c(/C=C2\C(=O)Nc3cccc(-c4cccc(Cl)c4F)c32)[nH]c2c1C(=O)N(CCN1CCCC1)CC2` [Example 68, 2-[4-(3-Chloro-2-fluoro-phenyl)-2-oxo-1,2-dihydro-indol-3-ylidenemethyl]-3-methyl-5-(2-pyrrolidin-1-yl-ethyl)-1,5,6,7-tetrahydro-pyrrolo[3,2-e]pyridin-4-one]: the pIC50 in the experiment on A431 cell was 4.86; on HER-2/ErbB2 kinase it was 6.28.

For `Cc1c(/C=C2\C(=O)Nc3cccc(Br)c32)[nH]c2c1C(=O)N(CCN1CCCC1)CC2` [Example 69, 2-(4-Bromo-2-oxo-1,2-dihydro-indol-3-ylidenemethyl)-3-methyl-5-(2-pyrrolidin-1-yl-ethyl)-1,5,6,7-tetrahydro-pyrrolo[3,2-c]pyridin-4-one], the figures for the pIC50 with A431 cell and against HER-2/ErbB2 kinase were 6.70 and 6.04, respectively.

For `Cc1c(/C=C2\C(=O)Nc3cccc(C4CCNCC4)c32)[nH]c2c1C(=O)N(CCN1CCCC1)CC2` [Example 71, 3-Methyl-2-(2-oxo-4-piperidin-4-yl-1,2-dihydro-indol-3-ylidenemethyl)-5-(2-pyrrolidin-1-yl-ethyl)-1,5,6,7-tetrahydro-pyrrolo[3,2-c]pyridin-4-one], the pIC50 in the experiment with A431 cell was 6.23; against HER-2/ErbB2 kinase, 5.96.
